According to DBAASP:
Converted amounts (≈) assume the structure as drawn.

Experiments:
Assay in all cases: ≥ marks a high value that may be exact or a test limit, other limits are often not marked, values filed in µg/mL are converted to µM
[1] = tested on: Staphylococcus epidermidis
Bacillus cereus = tested on: Bacillus cereus
Staphylococcus aureus = tested on: Staphylococcus aureus
Listeria innocua = tested on: Listeria innocua
Pasteurella multocida = tested on: Pasteurella multocida
Leuconostoc lactis = tested on: Leuconostoc lactis
Micrococcus luteus = tested on: Micrococcus luteus
Escherichia coli = tested on: Escherichia coli
Streptococcus uberis = tested on: Streptococcus uberis
[2] = tested on: Staphylococcus aureus ATCC 43300
[3] = tested on: Candida albicans ATCC 90028
[4] = tested on: Escherichia coli ATCC 8739
[5] = tested on: Staphylococcus aureus ATCC 6538
[6] = tested on: Bacillus licheniformis X39
[7] = tested on: Staphylococcus aureus ATCC 2592
[8] = tested on: Psychrobacter faecalis X29
[9] = tested on: Escherichia coli KCTC 1682
[10] = tested on: Staphylococcus aureus KCTC 1621
[11] = tested on: Salmonella typhimurium KCTC 1926
[12] = tested on: Pseudomonas aeruginosa KCTC 1637
[13] = tested on: Staphylococcus epidermidis KCTC 1917
[14] = tested on: Bacillus subtilis KCTC 3068
[15] = tested on: Staphylococcus aureus ATCC 25923
[16] = tested on: Candida albicans ATCC 2002
[17] = tested on: Enterococcus faecalis 981
[18] = tested on: Rhodococcus rhodochrous X15
[19] = tested on: Staphylococcus carnosus KHS

Row | SMILES | MIC [1] | MIC (Bacillus cereus) | MIC (Staphylococcus aureus) | MIC (Listeria innocua) | MIC (Pasteurella multocida) | MIC (Leuconostoc lactis) | MIC (Micrococcus luteus) | MIC (Escherichia coli) | MIC (Streptococcus uberis) | other results
1 | CC[C@H](C)[C@H](NC(=O)[C@@H](NC(=O)[C@@H]1CCCN1C(=O)[C@@H](NC(=O)[C@@H](NC(=O)[C@H](Cc1cnc[nH]1)NC(=O)[C@@H]1CCCN1C(=O)[C@H](CC(C)C)NC(=O)[C@@H](NC(=O)[C@H](Cc1cnc[nH]1)NC(=O)[C@H](CCC(N)=O)NC(=O)[C@H](C)NC(=O)[C@@H](NC(=O)[C@H](CO)NC(=O)CNC(=O)[C@H](CC(C)C)NC(=O)[C@@H](NC(=O)[C@H](CO)NC(=O)[C@H](CC(C)C)NC(=O)[C@H](CC(C)C)NC(=O)CN)C(C)C)C(C)C)C(C)C)C(C)C)C(C)C)C(C)C)C(=O)N[C@@H](C)C(=O)N[C@@H](CCC(=O)O)C(=O)N[C@@H](Cc1cnc[nH]1)C(=O)N[C@@H](CC(C)C)C(N)=O [GLLSVLGSVAQHVLPHVVPVIAEHL] | ≥ 38.7 µM | 19.3 µM (≈ 50 µg/mL) | 38.7 µM (≈ 100 µg/mL) | ≥ 38.7 µM | 9.67 µM (≈ 25 µg/mL) | 9.67 µM (≈ 25 µg/mL) | 0.58 µM (≈ 1.5 µg/mL) | 38.7 µM (≈ 100 µg/mL) | ≥ 38.7 µM | 
2 | CC[C@H](C)[C@H](NC(=O)[C@@H](NC(=O)[C@H](C)NC(=O)[C@H](C)NC(=O)[C@@H](NC(=O)[C@H](CCCCN)NC(=O)[C@H](CCCCN)NC(=O)[C@@H](NC(=O)[C@@H](NC(=O)[C@H](C)NC(=O)[C@H](Cc1ccccc1)NC(=O)[C@H](CC(C)C)NC(=O)[C@@H](N)CCCCN)C(C)C)[C@@H](C)CC)C(C)C)C(C)C)C(=O)NCC(=O)NCC(=O)N[C@@H](CC(C)C)C(N)=O [KLFAVIKKVAAVIGGL] | 15.4 µM (≈ 25 µg/mL) | ≥ 61.5 µM | 30.7 µM (≈ 50 µg/mL) | 15.4 µM (≈ 25 µg/mL) | ≥ 61.5 µM | 7.38 µM (≈ 12 µg/mL) | ≥ 61.5 µM | 61.5 µM (≈ 99.9 µg/mL) | ≥ 61.5 µM | 
3 | CC[C@H](C)[C@H](NC(=O)[C@@H](NC(=O)CN)C(C)C)C(=O)N[C@@H](C)C(=O)N[C@@H](C)C(=O)N[C@@H](C)C(=O)N[C@@H](CCCCN)C(=O)N[C@@H](CCCCN)C(=O)N[C@H](C(=O)N[C@H](C(=O)N[C@@H](CC(N)=O)C(=O)N[C@H](C(=O)N[C@@H](CC(C)C)C(=O)N[C@@H](CCCCN)C(=O)N[C@@H](CC(N)=O)C(=O)N[C@@H](CC(C)C)C(=O)N[C@@H](Cc1ccccc1)C(N)=O)C(C)C)C(C)C)C(C)C [GVIAAAKKVVNVLKNLF] | 6.73 µM (≈ 12 µg/mL) | 14 µM (≈ 25 µg/mL) | 14 µM (≈ 25 µg/mL) | 14 µM (≈ 25 µg/mL) | ≥ 56 µM | 1.68 µM (≈ 3 µg/mL) | 6.73 µM (≈ 12 µg/mL) | > 56 µM | 14 µM (≈ 25 µg/mL) | 
4 | CC[C@H](C)[C@H](NC(=O)[C@H](CCCCN)NC(=O)[C@@H](NC(=O)[C@H](CO)NC(=O)[C@H](CC(N)=O)NC(=O)[C@H](Cc1c[nH]c2ccccc12)NC(=O)[C@H](CC(C)C)NC(=O)CN)[C@@H](C)CC)C(=O)N[C@@H](C)C(=O)NCC(=O)N[C@@H](CCCCN)C(=O)N[C@@H](CCCCN)C(=O)N[C@@H](CC(C)C)C(=O)N[C@@H](Cc1ccccc1)C(=O)N[C@H](C(=O)N[C@@H](CC(N)=O)C(=O)N[C@H](C(=O)N[C@@H](CC(C)C)C(=O)N[C@@H](CC(=O)O)C(=O)N[C@@H](CCCCN)C(=O)N[C@H](C(=O)N[C@@H](CCCN=C(N)N)C(=O)N[C@@H](CO)C(=O)N[C@@H](CCCCN)C(=O)N[C@H](C(=O)N[C@@H](C)C(=O)NCC(=O)NCC(=O)N[C@@H](CO)C(=O)O)C(C)C)[C@@H](C)CC)C(C)C)C(C)C [GLWNSIKIAGKKLFVNVLDKIRSKVAGGS] |  |  |  |  |  |  |  |  |  | MIC [2]: 25 µM (≈ 77.5 µg/mL); MIC [3]: ≥ 100 µM; MIC [4]: 3.1 µM (≈ 9.61 µg/mL); MIC [5]: 6.3 µM (≈ 19.5 µg/mL)
5 | CC[C@H](C)[C@H](NC(=O)[C@H](CCCCN)NC(=O)[C@H](CC(=O)O)NC(=O)[C@H](CC(C)C)NC(=O)[C@@H](NC(=O)[C@H](CC(N)=O)NC(=O)[C@H](CC(C)C)NC(=O)[C@@H](NC(=O)[C@H](Cc1ccccc1)NC(=O)[C@H](CCC(N)=O)NC(=O)[C@H](CCCCN)NC(=O)CNC(=O)[C@H](C)NC(=O)[C@H](CC(N)=O)NC(=O)[C@H](CCCCN)NC(=O)[C@H](Cc1ccccc1)NC(=O)[C@H](CC(N)=O)NC(=O)[C@H](CCC(=O)O)NC(=O)[C@H](Cc1c[nH]c2ccccc12)NC(=O)[C@H](CC(C)C)NC(=O)[C@@H](N)CO)[C@@H](C)CC)[C@@H](C)CC)C(=O)N[C@@H](CCCN=C(N)N)C(=O)N[C@H]1CSSC[C@@H](C(=O)N[C@@H](CCCN=C(N)N)C(=O)N[C@H](C(=O)O)[C@@H](C)O)NC(=O)CNC(=O)CNC(=O)[C@H](C)NC(=O)[C@H](C(C)C)NC(=O)[C@H](CCCN=C(N)N)NC1=O [SLWENFKNAGKQFILNILDKIRCRVAGGCRT] |  |  |  |  |  |  |  |  |  | MIC [6]: 14 µM (≈ 49.7 µg/mL); MIC [7]: 1.7 µM (≈ 6.04 µg/mL); MIC [8]: 1.7 µM (≈ 6.04 µg/mL)
6 | CC[C@H](C)[C@H](NC(=O)[C@H](CCCN=C(N)N)NC(=O)[C@H](CCCCN)NC(=O)[C@H](CCCN=C(N)N)NC(=O)[C@@H](NC(=O)[C@H](CCCN=C(N)N)NC(=O)[C@@H](N)CCCCN)[C@@H](C)CC)C(=O)N[C@@H](CCCCN)C(=O)N[C@@H](CCCCN)C(=O)N[C@@H](Cc1c[nH]c2ccccc12)C(=O)N[C@@H](CC(C)C)C(=O)N[C@@H](CCCN=C(N)N)C(N)=O [KRIRKRIKKWLR] |  |  |  |  |  |  |  |  |  | MIC [9]: 2 µM (≈ 3.36 µg/mL); MIC [10]: 4 µM (≈ 6.72 µg/mL); MIC [11]: 2 µM (≈ 3.36 µg/mL); MIC [12]: 4 µM (≈ 6.72 µg/mL); MIC [13]: 1 µM (≈ 1.68 µg/mL); MIC [14]: 2 µM (≈ 3.36 µg/mL)
7 | CC[C@H](C)[C@H](NC(=O)[C@H](CCCCN)NC(=O)[C@@H](NC(=O)[C@H](CO)NC(=O)[C@H](CC(N)=O)NC(=O)[C@H](Cc1c[nH]c2ccccc12)NC(=O)[C@H](CC(C)C)NC(=O)CN)[C@@H](C)CC)C(=O)N[C@@H](C)C(=O)NCC(=O)N[C@@H](CCCCN)C(=O)N[C@@H](CCCCN)C(=O)N[C@@H](CC(C)C)C(=O)N[C@@H](Cc1ccccc1)C(=O)N[C@H](C(=O)N[C@@H](CC(N)=O)C(=O)N[C@H](C(=O)N[C@@H](CC(C)C)C(=O)N[C@@H](CC(=O)O)C(=O)N[C@@H](CCCCN)C(=O)N[C@H](C(=O)N[C@@H](CCCN=C(N)N)C(=O)N[C@H]1CSSC[C@@H](C(=O)N[C@@H](CCCCN)C(=O)N[C@H](C(=O)N[C@@H](CO)C(=O)N2CCC[C@H]2C(=O)N[C@@H](CC(=O)O)C(=O)N[C@H](C(=O)N[C@@H](CCC(=O)O)C(=O)N[C@@H](Cc2ccc(O)cc2)C(=O)N[C@@H](Cc2cnc[nH]2)C(=O)N[C@@H](CCCCN)C(=O)O)C(C)C)[C@@H](C)O)NC(=O)CNC(=O)CNC(=O)[C@H](C)NC(=O)[C@H](C(C)C)NC(=O)[C@H](CCCCN)NC1=O)[C@@H](C)CC)C(C)C)C(C)C [GLWNSIKIAGKKLFVNVLDKIRCKVAGGCKTSPDVEYHK] |  |  |  |  |  |  |  |  |  | MIC [2]: 100 µM (≈ 432 µg/mL); MIC [4]: 6.3 µM (≈ 27.2 µg/mL); MIC [5]: 6.3 µM (≈ 27.2 µg/mL)
8 | CC[C@H](C)[C@H](NC(=O)[C@H](C)N)C(=O)N[C@@H](CC(C)C)C(=O)N[C@H](C(=O)N[C@H](C(=O)N[C@@H](CC(C)C)C(=O)N[C@@H](C)C(=O)N[C@@H](CC(N)=O)C(=O)N[C@@H](Cc1c[nH]c2ccccc12)C(=O)N[C@@H](C)C(=O)N[C@@H](CCCN=C(N)N)C(=O)N[C@@H](CCCCN)C(=O)N[C@@H](Cc1ccccc1)C(=O)N[C@@H](CC(C)C)C(N)=O)[C@@H](C)O)[C@@H](C)O [AILTTLANWARKFL] |  |  |  |  |  |  |  |  |  | MIC [6]: 19 µM (≈ 30.7 µg/mL); MIC [7]: ≥ 46.4 µM; MIC [15]: 37.5 µM (≈ 60.6 µg/mL); MIC [8]: ≥ 75 µM; MIC [16]: ≥ 75 µM; MIC [17]: ≥ 150 µM; MIC [18]: 4.8 µM (≈ 7.76 µg/mL); MIC [19]: ≥ 37.5 µM
